Experimental data from publication PMC9851200, “Multiparameter phenotypic screening for endogenous TFEB and TFE3 translocation identifies novel chemical series modulating lysosome function” (Autophagy, 2022).

Legend:
SH-SY5Y cells [1] = test: AK (adenylate kinase) release ToxiLight cytotoxicity assay; conditions: PKIS2 primary screening; note: reference of the scale not given here
SH-SY5Y cells [2] = conditions: PKIS2 primary screening; for DQ Intensity: DQ Red BSA intensity; for DQ Spot: DQ Red BSA spot count
From the text: The PKIS2 Library was supplied by The Structural Genomics Consortium at the University of North Carolina at Chapel Hill.

SH-SY5Y cells [3] = test: Nuclear count from microscopy images (cellular growth and toxicity); conditions: PKIS2 primary screening; note: reference of the scale not given here
endogenous TFE3 = test: TFE3 nuclear translocation, immunocytochemistry high-content imaging; assay type: cell-based; conditions: PKIS2 primary screening
endogenous TFEB = test: TFEB nuclear translocation, immunocytochemistry high-content imaging; assay type: cell-based; conditions: PKIS2 primary screening
Throughout, for DQ Intensity: reference of the scale not given here.
Throughout, for DQ Spot: reference of the scale not given here.

Compound | AK (SH-SY5Y cells [1]) | DQ Intensity (SH-SY5Y cells [2]) | DQ Spot (SH-SY5Y cells [2]) | Nuclear Count (SH-SY5Y cells [3]) | TFE3 % (endogenous TFE3) [%] | TFEB % (endogenous TFEB) [%]
COc1ccc(Nc2nccc(N3CCC(NC(=O)Nc4cccc(C(C)=O)c4)C3)n2)cc1 (stereo not drawn) [GSK1379731] | 78.89 | 109.14 | 92.48 | 122.85 | 14.27 | 9.04
COc1ccc(Nc2nccc(N3CCC(NC(=O)c4cccc(NC(C)=O)c4)C3)n2)cc1 (stereo not drawn) [GSK1379732] | 83.81 | 114.89 | 106.49 | 135.73 | 6.22 | 5.92
COc1ccc(Nc2nccc(N3CCC(NC(=O)C(C)c4ccc(Cl)cc4)C3)n2)cc1 (stereo not drawn) [GSK1379735] | 70.53 | 99.92 | 94.04 | 119.80 | 11.71 | 5.13
CCCc1ccc(S(=O)(=O)NC2CCN(c3ccnc(Nc4ccc(OC)cc4)n3)C2)cc1 (stereo not drawn) [GSK1379737] | 106.07 | 83.70 | 93.35 | 116.08 | 12.75 | 5.95
COc1ccc(Nc2nccc(N3CCC(NC(=O)c4cc5ccccc5s4)C3)n2)cc1 (stereo not drawn) [GSK1379738] | 106.01 | 52.05 | 80.56 | 101.04 | 9.69 | 5.33
COc1ccc(Nc2nccc(N3CCC(NC(=O)Nc4cc(C)ccc4C)C3)n2)cc1 (stereo not drawn) [GSK1379741] | 100.67 | 91.14 | 90.28 | 115.70 | 9.28 | 3.59
COc1ccc(Nc2nccc(N3CCC(NC(=O)Nc4cccc(OC)c4)C3)n2)cc1 (stereo not drawn) [GSK1379742] | 126.78 | 119.16 | 99.38 | 103.65 | 16.87 | 8.93
COc1ccc(Nc2nccc(N3CCC(NC(=O)Nc4ccc5c(c4)OCO5)C3)n2)cc1 (stereo not drawn) [GSK1379745] | 76.28 | 69.10 | 77.91 | 86.22 | 19.51 | 10.83
COC(=O)c1cccc(NC(=O)NC2CCN(c3ccnc(Nc4ccc(OC)cc4)n3)C2)c1 (stereo not drawn) [GSK1379746] | 99.00 | 97.94 | 97.45 | 105.57 | 11.39 | 6.50
COc1ccc(CNC(=O)NC2CCN(c3ccnc(Nc4cc(OC)c(OC)c(OC)c4)n3)C2)cc1 (stereo not drawn) [GSK1379748] | 124.35 | 92.45 | 91.07 | 99.04 | 7.30 | 3.68
COc1cc(Nc2nccc(N3CCC(NC(=O)c4cccc(C#N)c4)C3)n2)cc(OC)c1OC (stereo not drawn) [GSK1379751] | 124.29 | 80.41 | 103.20 | 92.57 | 13.31 | 5.62
COc1cc(Nc2nccc(N3CCC(NC(=O)Nc4cccc(C(C)=O)c4)C3)n2)cc(OC)c1OC (stereo not drawn) [GSK1379753] | 112.38 | 96.48 | 93.76 | 116.36 | 10.72 | 2.90
COc1cc(Nc2nccc(N3CCC(NC(=O)c4cccc(NC(C)=O)c4)C3)n2)cc(OC)c1OC (stereo not drawn) [GSK1379754] | 115.02 | 91.71 | 95.86 | 143.24 | 7.67 | 3.28
COc1cc(Nc2nccc(N3CCC(NC(=O)C(C)c4ccc(Cl)cc4)C3)n2)cc(OC)c1OC (stereo not drawn) [GSK1379757] | 97.54 | 100.22 | 95.49 | 80.40 | 15.24 | 5.14
COc1cc(Nc2nccc(N3CCC(NC(=O)c4cc5ccccc5s4)C3)n2)cc(OC)c1OC (stereo not drawn) [GSK1379760] | 89.79 | 67.71 | 93.69 | 107.53 | 8.33 | 5.00
COc1cc(Nc2nccc(N3CCC(NC(=O)C4COc5ccccc5O4)C3)n2)cc(OC)c1OC (stereo not drawn) [GSK1379761] | 96.01 | 95.14 | 97.75 | 125.75 | 10.33 | 2.44
COc1cc(Nc2nccc(N3CCC(NC(=O)Nc4cc(C)ccc4C)C3)n2)cc(OC)c1OC (stereo not drawn) [GSK1379762] | 74.55 | 110.39 | 96.86 | 111.04 | 14.40 | 7.03

Compound | AK (SH-SY5Y cells [1]) | DQ Intensity (SH-SY5Y cells [2]) | DQ Spot (SH-SY5Y cells [2]) | Nuclear Count (SH-SY5Y cells [3]) | TFE3 % (endogenous TFE3) [%] | TFEB % (endogenous TFEB) [%]
COc1cccc(NC(=O)NC2CCN(c3ccnc(Nc4cc(OC)c(OC)c(OC)c4)n3)C2)c1 (stereo not drawn) [GSK1379763] | 111.80 | 128.42 | 124.42 | 90.02 | 18.80 | 4.72
COc1cccc(CNC(=O)NC2CCN(c3ccnc(Nc4cc(OC)c(OC)c(OC)c4)n3)C2)c1 (stereo not drawn) [GSK1379765] | 74.87 | 73.44 | 97.23 | 98.25 | 15.97 | 3.20
COc1cc(Nc2nccc(N3CCC(NC(=O)Nc4ccc5c(c4)OCO5)C3)n2)cc(OC)c1OC (stereo not drawn) [GSK1379766] | 118.87 | 63.32 | 78.55 | 95.41 | 9.31 | 4.47
COC(=O)c1cccc(NC(=O)NC2CCN(c3ccnc(Nc4cc(OC)c(OC)c(OC)c4)n3)C2)c1 (stereo not drawn) [GSK1379767] | 115.43 | 85.74 | 95.59 | 122.32 | 6.50 | 5.97
COc1ccc(CNC(=O)NC2CCN(c3ccnc(Nc4ccc(F)cc4)n3)CC2)cc1 [GSK1379788] | 114.99 | 86.32 | 97.11 | 82.62 | 14.89 | 3.80
O=C(Nc1ccccc1F)NC1CCN(c2ccnc(Nc3ccc(F)cc3)n2)CC1 [GSK1379800] | 198.42 | 95.32 | 97.06 | 118.12 | 9.18 | 6.86
COc1ccc(Nc2nccc(N3CCC(NC(=O)C(C)c4ccc(Cl)cc4)CC3)n2)cc1 (stereo not drawn) [GSK1379812] | 91.65 | 134.37 | 89.99 | 97.15 | 16.53 | 5.92
COc1cc(Nc2nccc(N3CCC(NS(=O)(=O)c4ccc(NC(C)=O)cc4)CC3)n2)cc(OC)c1OC [GSK1379825] | 75.82 | 96.24 | 89.82 | 107.84 | 12.08 | 12.82
O=C(Nc1ccc2c(c1)OCO2)NC1CCN(c2ccnc(NCc3ccc(F)cc3)n2)CC1 [GSK1379859] | 102.69 | 77.50 | 79.61 | 98.68 | 12.41 | 6.05
COC(=O)c1cccc(NC(=O)NC2CCN(c3ccnc(NCc4ccc(F)cc4)n3)CC2)c1 [GSK1379860] | 178.25 | 146.32 | 93.58 | 118.43 | 10.41 | 6.34
O=C(NCCNc1ccnc(Nc2ccc(F)cc2)n1)c1cc2ccccc2s1 [GSK1379874] | 71.16 | 94.35 | 110.46 | 89.16 | 18.78 | 5.88
Cc1ccc(C)c(NC(=O)NCCNc2ccnc(Nc3ccc(F)cc3)n2)c1 [GSK1379878] | 103.06 | 136.83 | 104.85 | 85.48 | 7.01 | 8.11
COc1cccc(NC(=O)NCCNc2ccnc(Nc3ccc(F)cc3)n2)c1 [GSK1379879] | 80.56 | 127.01 | 112.84 | 93.19 | 16.07 | 4.69
O=C(NCCNc1ccnc(Nc2ccc(F)cc2)n1)Nc1ccccc1F [GSK1379880] | 82.91 | 104.78 | 97.82 | 133.27 | 7.81 | 3.19
O=C(NCCNc1ccnc(Nc2ccc(F)cc2)n1)Nc1ccc2c(c1)OCO2 [GSK1379882] | 105.11 | 52.40 | 79.77 | 67.71 | 17.40 | 4.46
COC(=O)c1cccc(NC(=O)NCCNc2ccnc(Nc3ccc(F)cc3)n2)c1 [GSK1379883] | 105.04 | 102.62 | 95.44 | 115.63 | 3.78 | 8.27
COc1ccc(Nc2nccc(NCCNC(=O)c3cc4ccccc4s3)n2)cc1 [GSK1379896] | 100.12 | 100.56 | 107.99 | 88.87 | 17.76 | 5.04
